These results are taken from US12324568B2, “Mouthwash to deliver dyes for dental imaging” (BOARD OF SUPERVISORS OF LOUISIANA STATE UNIVERSITY AND …, priority 2020, dated 2025).

Each structure is given as a SMILES string. Like-named read-outs stand apart in the source and are kept apart here.

Assay [1] deals with rat molars (erupted P31, unerupted P14). As to conditions: rat model, previous work, cited from earlier work.
For assay [2] the test system is unchanged. As to the kind of experiment: ICG-assisted NIR dental imaging after subcutaneous injection in rat model. It counts as in vivo, Sprague Dawley rats. The procedure: (§1) Self-breed Sprague Dawley rats, including eight postnatal day 31 (P31) and two P21 rats for erupted molars and sixteen P14 rats for unerupted molars, were utilized. To simulate the mouthwash with living rats, 10 μL ICG solution (1 mg/ml) was pipetted into the mouth of two P31 rats in vivo, and the rats were euthanized after 2 minutes. The other two P21 went through the same in vivo mouthwash procedure and euthanized after 1 minute. In addition, the mandibles were dissected from another two P31 rats directly after euthanasia, then washed with 10 μL ICG (1 mg/ml) solution ex vivo for 10 minutes. For the subcutaneous injection, every two P31 rats were euthanized at each time points 10 minutes and 24 hours, for the ICG injection on the back (5 mg/kg body weight). For the unerupted molars, two rats were sacrificed 1 minute after in vivo mouthwash, and the same for the erupted molars. To study concentration effect on imaging, 0.1, 0.5, 1, and 5 mg/kg of ICG were injected into eight P14 rats (two rats for each dosage, and euthanized for each concentration 4 hours after injection). For P14 rats to study imaging windows, two rats were euthanized at 10 minutes, 4 hours and 48 hours for posting ICG injection (5 mg/kg) respectively.
The imaging system is depicted in FIG. 1(A). A 785 nm laser source shined to the mandibles with fiber and filters, a NIR camera received the videos, and videos were recorded by computer. The mandibles were then extracted and imaged using ICG-assisted endoscopic NIR dental imaging, as described in previous publications.^29-31 In the endoscopic imaging, an output fiber was connected to the endoscope with a camera.^30 All experiments were approved by the Institutional Animal Care and Use Committee (IACUC) of Louisiana State University (Protocol #16-117) and followed the ethical guidelines of animal care.
Meanwhile, endoscopic imaging provided clearer morphologies of the first and second molars than wide-field imaging. The lingual and occlusal cusps of the molars could be easily distinguished, especially for the mouthwash treatment (FIG. 1(B)). As described in previous work,^29, 30 the intensity-mean difference Dmean_diff (IMD) was used as the image contrast for the quantitative evaluation of the target and background. To further reveal the efficiency of the mouthwash and local injection, a sampling line (yellow lines in FIG. 1) covering both molar regions and the surrounding tissues was used to calculate the image contrast of the molar and surrounding tissues.

The next assay has as its system rat molars. As to the kind of experiment: ICG-assisted NIR dental imaging with in vivo mouthwash in living rats. Set-up: species or system Sprague Dawley rats. As to conditions: rat model. The protocol: as §1, with “To study concentration effect on imaging, 0.1, 0.5, 1, and 5 mg/kg of ICG were injected into eight P14 rats (two rats for each dosage, and euthanized for each concentration 4 hours after injection). For P14 rats to study imaging windows, two rats were euthanized at 10 minutes, 4 hours and 48 hours for posting ICG injection (5 mg/kg) respectively.” left out
The imaging system is depicted in FIG. 1(A). A 785 nm laser source shined to the mandibles with fiber and filters, a NIR camera received the videos, and videos were recorded by computer. […]
Meanwhile, endoscopic imaging provided clearer morphologies of the first and second molars than wide-field imaging. […] As described in previous work,^29, 30 the intensity-mean difference Dmean_diff (IMD) was used as the image contrast for the quantitative evaluation of the target and background. […]

Turning to `CC1(C)C(/C=C/C=C/C=C/C=C2\N(CCCCS(=O)(=O)O)c3ccc4ccccc4c3C2(C)C)=[N+](CCCCS(=O)(=O)[O-])c2ccc3ccccc3c21` [ICG, indocyanine green], the values for the imaging window in assay [1] (erupted molars) and in assay [1] (unerupted molar) were 4 h and “about 96 hours”, respectively. Moreover, the “visibility of dental structures” value is “no dental structures could be observed” in assay [2] (erupted molars (P31 rat), 24 hours after ICG injection); “clearly observable” in assay [2] (erupted molars (P31 rat), subcutaneous injection, imaging window 10 minutes); “could still be observed” in assay [2] (unerupted molars (P14 rats), imaging window 48 hours). The “minimal dye dosage to achieve recognizable anatomical imaging” value in assay [2] (subcutaneous injection, P14 rats (FIG. 9)) is listed as 0.1 mg/kg (body weight). Moreover, the “time to achieve the same image contrast” value in the assay with rat molars was in the range of 1 to 2 min.
